Experiment [1] has as its system cMyc (DNA, G4) TGAGGGTGGGTAGGGTGGGTAA
As to the kind of experiment: fluorescence light-switch, plate reader. Conditions: 5 mM KCl, 95 mM LiCl; 10 mM lithium cacodylate, pH 7.2, 25 °C; about 0.1 µM PtTMPyP4, DNA:porphyrin 50:1; intensity ratio, not affinity.

Experiment [2] relates to F21D (DNA, G4) GGGTTAGGGTTAGGGTTAGGG
As to the kind of experiment: FRET melting. Conditions: 5 mM KCl, 95 mM LiCl; 10 mM lithium cacodylate, pH 7.2; 0.4 µM ligand, 0.2 µM F21D.

In experiment [3] the test system is 17A (DNA, single strand) CCAGTTCGTAGTAACCC
As to the kind of experiment: fluorescence light-switch, plate reader. Conditions: 5 mM KCl, 95 mM LiCl; 10 mM lithium cacodylate, pH 7.2, 25 °C; about 0.1 µM PtTMPyP4, DNA:porphyrin 50:1; intensity ratio, not affinity.

The subject of experiment [4] is Tel22 (DNA, G4) AGGGTTAGGGTTAGGGTTAGGG
The experiment in a line: fluorescence light-switch, plate reader. As to conditions: 10 mM lithium cacodylate, pH 7.2, 25 °C, about 0.1 µM PtTMPyP4, DNA:porphyrin 50:1, intensity ratio, not affinity.

Experiment [5] relates to 26TelG4 (DNA, G4) AGGGGTTAGGGGTTAGGGGTTAGGGG
As to the kind of experiment: fluorescence light-switch, plate reader. Conditions: 10 mM lithium cacodylate, pH 7.2, 25 °C, about 0.1 µM PtTMPyP4, DNA:porphyrin 50:1, intensity ratio, not affinity.

In experiment [6] the test system is ds26 (DNA, duplex) CAATCGGATCGAATTCGATCCGATTG
The experiment in a line: fluorescence light-switch, plate reader. As to conditions: 5 mM KCl, 95 mM LiCl; 10 mM lithium cacodylate, pH 7.2, 25 °C; about 0.1 µM PtTMPyP4, DNA:porphyrin 50:1; intensity ratio, not affinity.

The test system of experiment [7] is G4TERT (DNA, G4) AGGGGAGGGGCTGGGAGGGC
The experiment in a line: fluorescence light-switch, plate reader. As to conditions: 5 mM KCl, 95 mM LiCl; 10 mM lithium cacodylate, pH 7.2, 25 °C; about 0.1 µM PtTMPyP4, DNA:porphyrin 50:1; intensity ratio, not affinity.

The test system of experiment [8] is 17AB (DNA, duplex) CCAGTTCGTAGTAACCC/GGGTTACTACGAACTGG
As to the kind of experiment: fluorescence light-switch, plate reader. Conditions: 5 mM KCl, 95 mM LiCl; 10 mM lithium cacodylate, pH 7.2, 25 °C; about 0.1 µM PtTMPyP4, DNA:porphyrin 50:1; intensity ratio, not affinity.

The subject of experiment [9] is Tel22 (DNA, G4) AGGGTTAGGGTTAGGGTTAGGG
The experiment in a line: UV-Vis titration, direct fit. Conditions: 5 mM KCl, 95 mM LiCl, 10 mM lithium cacodylate, stoichiometry fixed, equivalent sites.

The subject of experiment [10] is cKit1 (DNA, G4) GGGAGGGCGCTGGGAGGAGGG
As to the kind of experiment: fluorescence light-switch, plate reader. Conditions: 5 mM KCl, 95 mM LiCl; 10 mM lithium cacodylate, pH 7.2, 25 °C; about 0.1 µM PtTMPyP4, DNA:porphyrin 50:1; intensity ratio, not affinity.

Experiment [11] relates to TBA (DNA, G4) GGTTGGTGTGGTTGG
As to the kind of experiment: fluorescence light-switch, plate reader. As to conditions: 10 mM lithium cacodylate, pH 7.2, 25 °C, about 0.1 µM PtTMPyP4, DNA:porphyrin 50:1, intensity ratio, not affinity.

Experiment [12] concerns Bcl-2 (DNA, G4) GGGCGCGGGAGGGAATTGGGCGGG
As to the kind of experiment: fluorescence light-switch, plate reader. Conditions: 5 mM KCl, 95 mM LiCl; 10 mM lithium cacodylate, pH 7.2, 25 °C; about 0.1 µM PtTMPyP4, DNA:porphyrin 50:1; intensity ratio, not affinity.

In experiment [13] the test system is VEGF (DNA, G4) GGGAGGGTTGGGGTGGG
As to the kind of experiment: fluorescence light-switch, plate reader. Conditions: 5 mM KCl, 95 mM LiCl; 10 mM lithium cacodylate, pH 7.2, 25 °C; about 0.1 µM PtTMPyP4, DNA:porphyrin 50:1; intensity ratio, not affinity.

The test system of experiment [14] is G4T4G4 (DNA, G4) GGGGTTTTGGGG
As to the kind of experiment: fluorescence light-switch, plate reader. As to conditions: 10 mM lithium cacodylate, pH 7.2, 25 °C, about 0.1 µM PtTMPyP4, DNA:porphyrin 50:1, intensity ratio, not affinity.

Experiment [15] relates to Tel22 (DNA, G4) AGGGTTAGGGTTAGGGTTAGGG
The experiment in a line: fluorescence titration, direct fit. Conditions: 5 mM KCl, 95 mM LiCl; 10 mM lithium cacodylate, pH 7.2, 20 °C; 1.7-2.0 µM PtTMPyP4; equivalent sites.

The test system of experiment [16] is 17B (DNA, single strand) GGGTTACTACGAACTGG
As to the kind of experiment: fluorescence light-switch, plate reader. Conditions: 5 mM KCl, 95 mM LiCl; 10 mM lithium cacodylate, pH 7.2, 25 °C; about 0.1 µM PtTMPyP4, DNA:porphyrin 50:1; intensity ratio, not affinity.

Usually ΔTm stands for the change in melting temperature against a reference sample. `C[n+]1ccc(-c2c3nc(c(-c4cc[n+](C)cc4)c4ccc([n-]4)c(-c4cc[n+](C)cc4)c4nc(c(-c5cc[n+](C)cc5)c5ccc2[n-]5)C=C4)C=C3)cc1.[Pt+2]`: the Fluorescence enhancement in experiment [1] was determined as 28.0 ± 5.0; in [3] it was 38.1 ± 1.5; in experiment [4] (5 mM KCl, 95 mM LiCl), 71.8 ± 10; in [4] (50 mM NaCl, 50 mM LiCl), 54.2 ± 14.6; in experiment [5] (5 mM KCl, 95 mM LiCl), 65.4 ± 4.8; in experiment [5] (50 mM NaCl, 50 mM LiCl), 54.1 ± 15. Also, the Fluorescence enhancement in [6] stood at 39.1 ± 5.2; in experiment [7], 85.7 ± 0.9; in experiment [8], 46.0 ± 0.7; in experiment [10] it was 28.0 ± 5.6; in experiment [11] (5 mM KCl, 95 mM LiCl) it was 29.5 ± 5.4; in experiment [11] (50 mM NaCl, 50 mM LiCl), 32.6 ± 6.8. Also, the Fluorescence enhancement is given as 39.2 ± 5.7 in experiment [12]; 76.9 ± 3.8 in experiment [13]; 42.2 ± 9.2 in [14] (5 mM KCl, 95 mM LiCl); 40.5 ± 12 in experiment [14] (50 mM NaCl, 50 mM LiCl); 43.9 ± 3.0 in [16]. The ΔTm in experiment [2] came out at 30.7 ± 0.6 °C. Also, the binding affinity result in experiment [9] (pH 7.2, 20 °C) is recorded as “(5.8 ± 0.8) × 10^6 M^-1”. For the same compound, in experiment [15], the binding constant entry is “(1.8 ± 0.3) × 10^6 M^-1”.

On to `C[n+]1ccc(-c2c3nc(c(-c4cc[n+](C)cc4)c4ccc([n-]4)c(-c4cc[n+](C)cc4)c4nc(c(-c5cc[n+](C)cc5)c5ccc2[n-]5)C=C4)C=C3)cc1.[Pd+2]`, for which the ΔTm in [2] was 30.9 ± 0.4 °C. Further, the binding affinity entry in experiment [9] (pH 7.2) is “(1.0 ± 0.3) × 10^7 M^-1”.

The values above are taken from publication PMC4801998 (2016).
